Experimental data taken from patent publication US12258365B2, “Organophosphorus-substituted compounds as c-MET inhibitors and therapeutic uses thereof” (BETA PHARMA, INC., priority 2018, dated 2025).

Biological target: c-MET (Homo sapiens, UniProt P08581)
Assay: Biochemical kinase assay (33P-ATP, filter-binding)
Conditions: radiometric 33P-ATP filter-binding kinase reaction, 20 min preincubation, 2 hours at room temperature
Protocol: Reaction Buffer: 20 mM Hepes (pH 7.5), 10 mM MgCl2, 1 mM EGTA, 0.02%, Brij35, 0.02 mg/mL BSA, 0.1 mM Na3VO4, 2 mM DTT and 1% DMSO.
Required cofactors were added individually to each kinase reaction.
The testing compounds were dissolved in 100% DMSO to specific concentration. The serial dilution was conducted by Integra Viaflo Assist in DMSO.
• 1. Prepare substrate in freshly prepared Reaction Buffer. • 2. Deliver any required cofactors to the substrate solution above. • 3. Deliver kinase into the substrate solution and gently mix. • 4. Deliver compounds in 100% DMSO into the kinase reaction mixture by Acoustic technology (Echo550; nanoliter range), incubate for 20 min at room temp. • 5. Deliver ^33P-ATP (Specific activity 10 μCi/μL) into the reaction mixture to initiate the reaction. • 6. Incubate for 2 hours at room temperature. • 7. Detect radioactivity by filter-binding method. • 8. Kinase activity data were expressed as the percent remaining kinase activity in test samples compared to vehicle (DMSO) reactions. IC50 values and curve fits were obtained using Prism (GraphPad Software) (Table 1).

c-MET, sequence (P08581 25-1390): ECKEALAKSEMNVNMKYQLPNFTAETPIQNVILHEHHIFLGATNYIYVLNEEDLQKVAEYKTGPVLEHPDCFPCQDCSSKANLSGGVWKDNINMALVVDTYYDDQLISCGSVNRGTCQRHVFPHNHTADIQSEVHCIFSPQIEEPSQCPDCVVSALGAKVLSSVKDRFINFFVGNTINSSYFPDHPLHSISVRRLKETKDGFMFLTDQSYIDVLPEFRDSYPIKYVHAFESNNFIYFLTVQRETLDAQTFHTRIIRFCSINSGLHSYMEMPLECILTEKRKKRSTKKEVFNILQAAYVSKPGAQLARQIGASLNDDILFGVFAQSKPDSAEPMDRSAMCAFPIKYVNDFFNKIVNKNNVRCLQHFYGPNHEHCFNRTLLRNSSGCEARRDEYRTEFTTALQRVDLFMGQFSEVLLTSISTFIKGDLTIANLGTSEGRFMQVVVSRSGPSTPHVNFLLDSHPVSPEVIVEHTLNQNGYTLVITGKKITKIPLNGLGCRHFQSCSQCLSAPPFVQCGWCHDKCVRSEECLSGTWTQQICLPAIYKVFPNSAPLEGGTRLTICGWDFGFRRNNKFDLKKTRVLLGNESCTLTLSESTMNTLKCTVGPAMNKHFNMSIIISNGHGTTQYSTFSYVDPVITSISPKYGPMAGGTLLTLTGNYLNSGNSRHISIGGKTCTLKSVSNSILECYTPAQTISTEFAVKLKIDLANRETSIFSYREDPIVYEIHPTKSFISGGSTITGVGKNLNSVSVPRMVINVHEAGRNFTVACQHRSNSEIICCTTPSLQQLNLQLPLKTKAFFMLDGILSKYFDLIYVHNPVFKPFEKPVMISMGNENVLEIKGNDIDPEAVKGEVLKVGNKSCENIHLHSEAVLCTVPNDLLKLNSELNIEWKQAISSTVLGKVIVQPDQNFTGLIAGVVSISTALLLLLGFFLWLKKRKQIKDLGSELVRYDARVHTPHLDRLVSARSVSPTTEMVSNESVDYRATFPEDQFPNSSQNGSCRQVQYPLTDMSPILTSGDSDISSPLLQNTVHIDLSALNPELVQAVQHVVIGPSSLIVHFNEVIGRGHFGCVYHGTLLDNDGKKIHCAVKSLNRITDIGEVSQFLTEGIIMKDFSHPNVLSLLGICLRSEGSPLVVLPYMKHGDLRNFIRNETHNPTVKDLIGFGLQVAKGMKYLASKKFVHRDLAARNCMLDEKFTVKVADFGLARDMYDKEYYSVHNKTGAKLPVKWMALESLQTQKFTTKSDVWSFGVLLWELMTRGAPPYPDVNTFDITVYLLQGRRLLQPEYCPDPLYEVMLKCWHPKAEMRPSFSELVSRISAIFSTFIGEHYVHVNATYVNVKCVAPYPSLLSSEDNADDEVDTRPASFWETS

| SMILES | IC50 |
| --- | --- |
| CP(C)(=O)c1ccc(-c2cnc3nnn(Cc4ccc5ncccc5c4)c3n2)cc1 [Example 1, Dimethyl(4-(1-(quinolin-6-ylmethyl)-1H-[1,2,3]triazolo[4,5-b]pyrazin-6-yl)phenyl)-phosphine oxide] | < 0.01 µM |
| CCOP(C)(=O)Cc1ccc(-c2cnc3nnn(Cc4ccc5ncccc5c4)c3n2)cc1 (stereo not shown) [Example 2, Ethyl methyl(4-(1-(quinolin-6-ylmethyl)-1H-[1,2,3]triazolo[4,5-b]pyrazin-6-yl)benzyl)-phosphinate] | < 0.01 µM |
| CP(=O)(O)Cc1ccc(-c2cnc3nnn(Cc4ccc5ncccc5c4)c3n2)cc1 [Example 3, Methyl(4-(1-(quinolin-6-ylmethyl)-1H-[1,2,3]triazolo[4,5-b]pyrazin-6-yl)benzyl)-phosphinic Acid] | < 0.01 µM |
| CP(C)(=O)c1ccc(-c2cnc3nnn(Cc4ccc5ncccc5c4)c3n2)c(F)c1 [Example 4, (3-Fluoro-4-(1-(quinolin-6-ylmethyl)-1H-[1,2,3]triazolo[4,5-b]pyrazin-6-yl)phenyl)dimethylphosphine oxide] | 0.011 to 0.02 µM |
| CP(C)(=O)c1ccc(-c2cnc3nnn(Cc4ccc5ncccc5c4)c3n2)cc1F [Example 5, (2-Fluoro-4-(1-(quinolin-6-ylmethyl)-1H-[1,2,3]triazolo[4,5-b]pyrazin-6-yl)phenyl)dimethyl-phosphine Oxide] | < 0.01 µM |
| CP(C)(=O)c1ccc(-c2cnc3nnn(Cc4ccc5nccn5c4)c3n2)cc1 [Example 6, (4-(1-(Imidazo[1,2-a]pyridin-6-ylmethyl)-1H-[1,2,3]triazolo[4,5-b]pyrazin-6-yl)phenyl)dimethylphosphine Oxide] | < 0.01 µM |
| CP(C)(=O)c1cccc(-c2cnc3nnn(Cc4ccc5nccn5c4)c3n2)c1 [Example 7, (3-(1-(Imidazo[1,2-a]pyridin-6-ylmethyl)-1H-[1,2,3]triazolo[4,5-b]pyrazin-6-yl)phenyl)-dimethylphosphine Oxide] | 0.011 to 0.02 µM |
| CP(C)(=O)c1cccc(-c2cnc3nnn(Cc4ccc5ncccc5c4)c3n2)c1 [Example 8, Dimethyl(3-(1-(quinolin-6-ylmethyl)-1H-[1,2,3]triazolo[4,5-b]pyrazin-6-yl)phenyl)phosphine Oxide] | 0.011 to 0.02 µM |
| CP(C)(=O)Cn1cc(-c2cnc3nnn(Cc4ccc5ncccc5c4)c3n2)cn1 [Example 9, Dimethyl((4-(1-(quinolin-6-ylmethyl)-1H-[1,2,3]triazolo[4,5-b]pyrazin-6-yl)-1H-pyrazol-1-yl)methyl)phosphine Oxide] | 0.021 to 0.1 µM |

Other lines, results leading:

| IC50 | SMILES |
| --- | --- |
| 0.021 to 0.1 µM | CP(C)(=O)Cn1cc(-c2cnc3nnn(Cc4ccc5nccn5c4)c3n2)cn1 [Example 10, ((4-(1-(Imidazo[1,2-a]pyridin-6-ylmethyl)-1H-[1,2,3]triazolo[4,5-b]pyrazin-6-yl)-1H-pyrazol-1-yl)methyl)dimethylphosphine Oxide] |
| < 0.01 µM | CP(C)(=O)c1ccc(Nc2cnc3nnn(Cc4ccc5ncccc5c4)c3n2)cc1 [Example 11, Dimethyl(4-((1-(quinolin-6-ylmethyl)-1H-[1,2,3]triazolo[4,5-b]pyrazin-6-yl)amino)phenyl)phosphine Oxide] |
| < 0.01 µM | CP(C)(=O)c1ccc(Nc2cnc3nnn(Cc4ccc5ncccc5c4)c3n2)cc1F [Example 12, (2-Fluoro-4-((1-(quinolin-6-ylmethyl)-1H-[1,2,3]triazolo[4,5-b]pyrazin-6-yl)amino)phenyl)dimethylphosphine Oxide] |
| 0.021 to 0.1 µM | CP(C)(=O)c1cccc(-c2ccc3nnc(C(F)(F)c4ccc5nccn5c4)n3n2)c1 [Example 13, (3-(3-(Difluoro(imidazo[1,2-a]pyridin-6-yl)methyl)-[1,2,4]triazolo[4,3-b]pyridazin-6-yl)phenyl)dimethylphosphine Oxide] |
| 1 to 6 µM | CP(C)(=O)c1ccc(-c2ccc3nnc(C(F)(F)c4ccc5nccn5c4)n3n2)cc1 [Example 14, (4-(3-(Difluoro(imidazo[1,2-a]pyridin-6-yl)methyl)-[1,2,4]triazolo[4,3-b]pyridazin-6-yl)phenyl)dimethylphosphine Oxide] |
| < 0.01 µM | CC(c1ccc2nccn2c1)n1nnc2ncc(-c3ccc(P(C)(C)=O)cc3)nc21 (stereo not shown) [Example 15, (4-(1-(1-(Imidazo[1,2-a]pyridin-6-yl)ethyl)-1H-[1,2,3]triazolo[4,5-b]pyrazin-6-yl)phenyl)dimethylphosphine Oxide] |
| 0.011 to 0.02 µM | CP(C)(=O)c1ccc(-c2cnc3nnn(Cc4ccc5c(c4)CCO5)c3n2)cc1 [Example 16, (4-(1-((2,3-Dihydrobenzofuran-5-yl)methyl)-1H-[1,2,3]triazolo[4,5-b]pyrazin-6-yl)phenyl)dimethylphosphine Oxide] |
| 0.021 to 0.1 µM | CP(C)(=O)c1ccc(-c2cnc3nnn(Cc4ccc5ncc(F)n5c4)c3n2)cc1 [Example 17, (4-(1-((3-Fluoroimidazo[1,2-a]pyridin-6-yl)methyl)-1H-[1,2,3]triazolo[4,5-b]pyrazin-6-yl)phenyl)dimethylphosphine Oxide] |
| 1 to 6 µM | CP(C)(=O)c1cnc2nnn(Cc3ccc4ncccc4c3)c2n1 [Example 18, Dimethyl(1-(quinolin-6-ylmethyl)-1H-[1,2,3]triazolo[4,5-b]pyrazin-6-yl)phosphine Oxide] |
| < 0.01 µM | CC(c1ccc2ncccc2c1)n1nnc2ncc(-c3ccc(P(C)(C)=O)cc3)nc21 (stereo not shown) [Example 19, Dimethyl(4-(1-(1-(quinolin-6-yl)ethyl)-1H-[1,2,3]triazolo[4,5-b]pyrazin-6-yl)phenyl)phosphine Oxide] |
| < 0.01 µM | Cn1cc2cc(Cn3nnc4ncc(-c5ccc(P(C)(C)=O)cc5)nc43)c(F)cc2n1 [Example 20, (4-(1-((6-Fluoro-2-methyl-2H-indazol-5-yl)methyl)-1H-[1,2,3]triazolo[4,5-b]pyrazin-6-yl)phenyl)dimethylphosphine Oxide] |
| < 0.01 µM | Cn1cc2cc(Cn3nnc4ncc(-c5ccc(P(C)(C)=O)c(F)c5)nc43)c(F)cc2n1 [Example 21, (2-fluoro-4-(1-((6-fluoro-2-methyl-2H-indazol-5-yl)methyl)-1H-[1,2,3]triazolo[4,5-b]pyrazin-6-yl)phenyl)-dimethylphosphine oxide] |
| < 0.01 µM | Cn1cc2cc(Cn3nnc4ncc(-c5ccc(P(C)(C)=O)c(F)c5)nc43)ccc2n1 [Example 22, (2-Fluoro-4-(1-((2-methyl-2H-indazol-5-yl)methyl)-1H-[1,2,3]triazolo[4,5-b]pyrazin-6-yl)phenyl)dimethylphosphine Oxide] |
